From patent US20050232915A1, “Matrix metalloproteinase inhibitors in combination with hypothermia and/or radiotherapy for the treatment of cancer” (priority 2002, published 2005)

What was measured:
Panc-1 cells [1] = assay: Matrigel invasion assay after irradiation; format: cell-based, human; settings: Panc-1, irradiation at 5 Gy, inhibitor at 5 and 10 μM added just before irradiation, 24 h
Experimental: The cells are irradiated with doses of 3, 5, or 10 Gy at room temperature using a ^137Cs source (Gamma Cell 40, Atomic Energy of Canada Ltd., Ontario, Canada) delivering 1.0 Gy/min.
Invasion of pancreatic cancer cells is measured by the invasion of cells through Matrigel-coated transwell inserts (Becton Dickinson, Franklin Lakes, N.J., USA) (Sato et al and Maehara et al ibid).
Briefly, transwell inserts with 8 μm pore are coated with Matrigel (40 μg/well, Becton Dickinson, Bedford, Mass., USA). Five hundred μl of cell suspension (1×10^5/ml) are added to the upper chambers. Same media of 750 μl are placed in the lower wells. Thereafter, the cells are irradiated and incubated for 24 h. Cells that have invaded to lower surface of the Matrigel-coated membrane are fixed with 70% ethanol, stained with H&E, and counted in five random fields under a light microscope.
(§1) Finally, we test whether a synthetic MMP inhibitor, N-hydroxy-2(R)-[[4 methoxyphenylsulfonyl](3-picolyl)amino]-3-methyl-butaneamide hydrochloride) monohydrate, could prevent the radiation-enhanced invasiveness. N-hydroxy-2(R)-[[4-methoxyphenylsulfonyl](3-picolyl)amino]-3-methyl-butaneamide hydrochloride) monohydrate is added to invasion chambers at final concentrations of 1, 5, and 10 μm just before irradiation.

MMP-2 [2] = target: T1, MMP-2 (Homo sapiens, UniProt P08253); assay: Gelatin zymography of conditioned medium from Panc-1 cells; format: cell-based; settings: 5 μM, Panc-1 conditioned medium
T1 construct: The conditioned medium either from non-irradiated or irradiated Panc-1 cells is concentrated to 10-fold; endogenous in cells; host or cells: Panc-1 cells (conditioned medium)
T1 sequence (P08253 110-660): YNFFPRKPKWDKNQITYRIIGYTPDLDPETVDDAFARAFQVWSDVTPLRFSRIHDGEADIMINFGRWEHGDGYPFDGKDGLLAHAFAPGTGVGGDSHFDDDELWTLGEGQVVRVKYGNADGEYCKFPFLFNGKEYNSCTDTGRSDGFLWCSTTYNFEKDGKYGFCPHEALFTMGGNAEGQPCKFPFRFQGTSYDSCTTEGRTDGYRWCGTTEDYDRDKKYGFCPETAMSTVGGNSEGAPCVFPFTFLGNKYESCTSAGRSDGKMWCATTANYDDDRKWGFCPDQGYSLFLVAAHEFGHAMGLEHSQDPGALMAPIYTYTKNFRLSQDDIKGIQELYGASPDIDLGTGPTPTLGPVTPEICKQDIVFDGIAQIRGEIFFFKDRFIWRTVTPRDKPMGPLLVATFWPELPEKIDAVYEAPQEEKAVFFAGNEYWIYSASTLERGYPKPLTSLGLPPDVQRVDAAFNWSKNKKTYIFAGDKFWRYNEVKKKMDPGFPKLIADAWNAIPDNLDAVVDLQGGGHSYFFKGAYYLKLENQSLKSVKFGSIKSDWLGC
Experimental: (§2) The conditioned medium either from non-irradiated or irradiated Panc-1 cells is concentrated to 10-fold with Centricon-10 (Amico, Beverly, Mass., USA). Samples are added to each lane and subjected to 10% SDS-polyacrylamide gel electrophoresis, using 10% polyacrylamide gel containing 1 mg/ml gelatin. After electrophoresis, the gel is washed in 2.5% Triton X-100, and incubated in 50 mM Tris-HCl buffer (pH8.0) containing 0.5 mM CaCl2 and 1 mM ZnCl2 for 20 hr at 37° C. The gel is stained with 1% Coomassie Brilliant Blue R-250 and destained with destaining buffer (5% acetic acid and 10% methanol).
(§3) To determine the role of gelatinases in the radiation-induced changes in invasive potential, we examine MMPs activity in Panc-1 cells before and after irradiation. Cells are incubated 24 h after irradiation and the conditioned medium is subjected to the gelatin zymography. Untreated Panc-1 cells secrete both latent and active forms of MMP-2 (72 kDa and 62 kDa gelatinases).
as §1

MMP-2 [3] = target: T2, MMP-2 (Homo sapiens, UniProt P08253); assay: as above; format: cell-based; settings: 5 μM, Panc-1 conditioned medium; remark: listed apart in the source
T2 construct: The conditioned medium either from non-irradiated or irradiated Panc-1 cells is concentrated to 10-fold; endogenous in cells; host or cells: Panc-1 cells (conditioned medium)
T2 sequence (P08253 30-660): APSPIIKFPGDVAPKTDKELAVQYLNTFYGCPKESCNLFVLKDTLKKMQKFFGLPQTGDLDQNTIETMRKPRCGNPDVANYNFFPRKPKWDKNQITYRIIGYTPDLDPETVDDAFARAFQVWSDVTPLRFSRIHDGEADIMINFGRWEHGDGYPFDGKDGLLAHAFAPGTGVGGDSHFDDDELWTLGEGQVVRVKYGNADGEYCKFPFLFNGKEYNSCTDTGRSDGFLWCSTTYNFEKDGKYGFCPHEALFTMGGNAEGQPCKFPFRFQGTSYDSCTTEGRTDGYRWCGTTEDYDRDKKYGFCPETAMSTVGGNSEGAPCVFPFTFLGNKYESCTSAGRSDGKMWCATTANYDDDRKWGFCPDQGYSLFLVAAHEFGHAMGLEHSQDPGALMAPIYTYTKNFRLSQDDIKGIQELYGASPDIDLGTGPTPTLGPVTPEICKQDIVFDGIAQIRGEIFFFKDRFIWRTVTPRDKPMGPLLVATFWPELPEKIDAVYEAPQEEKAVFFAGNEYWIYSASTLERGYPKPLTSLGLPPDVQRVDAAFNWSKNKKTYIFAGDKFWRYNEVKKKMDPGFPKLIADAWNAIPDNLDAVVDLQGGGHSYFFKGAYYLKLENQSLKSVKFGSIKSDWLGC
Experimental: as §2, §3, §1

Panc-1 cells [4] = assay: Growth and viability of Panc-1 cells (cell proliferation assay); format: cell-based, human; settings: concentrations up to 10 μM
Experimental: Cell proliferation is evaluated by measuring the fluorescence intensity of propidium iodide (PI) as described previously by Zhang et al. (Cancer Lett., 142: 129-137, 1999) with minor modifications. Briefly, cells are seeded in 24-well plates at a density of 3×10^4 cells per well. After overnight cultivation, cells are irradiated and cultured for 4 days. PI (30 μM) and digitonin ([…]) are added to each well to label all nuclei of the cells with PI. Fluorescence intensity corresponding to total cells in each well is measured by a multi-well plate-reader, CYTOFLUOR II (PerSeptive Biosystems Inc., Framingham, Mass., USA) with 530-nm excitation and 645-nm emission filters. The cell proliferation rate is calculated as the proportion of fluorescence intensity of each well at the time point indicated in the text to that at the day of irradiation.
as §1

In the case of `COc1ccc(S(=O)(=O)N(Cc2cccnc2)[C@@H](C(=O)NO)C(C)C)cc1.Cl.O` [N-hydroxy-2(R)-[[4-methoxyphenylsulfonyl](3-picolyl)amino]-3-methyl-butaneamide hydrochloride)monohydrate], the “increase in invaded cells after irradiation (radiation-enhanced invasion)” value (Panc-1 cells [1]) is reported as “significantly block the increase in invaded cells after irradiation”, the “active type MMP-2 (gelatin zymography)” value (MMP-2 [2]) is reported as “markedly decreases” and the “enzymatic activity of latent type MMP-2 (gelatin zymography)” value (MMP-2 [3]) is reported as “without affecting”. For the same compound, the “growth and viability of Panc-1 cells” value (Panc-1 cells [4]) was “does not affect the growth and viability”.
